Measured values: patent US20220184000A1, “USE OF CANNABIDIOL IN THE TREATMENT OF DRAVET SYNDROME” (priority 2019, published 2022)

How the values were obtained:
Type in all cases: in vivo
Scn1a^+/− mice [1] = experiment: Gait test, Study II; details: CBD 100 mg/kg s.c. twice daily
Experimental: Here, Scn1a^+/− were randomly divided into two groups and subcutaneously injected with either CBD (100 mg/kg twice daily; n=12) or its vehicle (ethanol:Kolliphor®:0.9% saline=2:1:17; n=29) from P8 onwards until P52 or death (whichever was earlier).
Gait test was conducted to assess the cerebellar function of the animals (Patel & Hillard, 2001). In this test, the hind paws of each mouse were marked with a non-toxic ink and the mouse was allowed to walk on a white paper (50×10 cm) placed on the floor of a custom-made plexiglass tunnel (50×10×10 cm). To obtain the left and right stride length, the distance between two ipsilateral paw prints was measured, whereas stride width was calculated from the distance between a footprint and its contralateral stride length at right angle (Wecker et al., 2013). The initial and last footprints were not considered in measurements. All the animals were habituated to the test procedures and the apparatus for 2 days prior to the test. On the day of test, two trials were conducted for each animal to obtain mean stride length (left or right) and width for that animal.
In Study II, the data were analysed in GraphPad Prism 6 software. Survival curves of Scn1a^+/− vehicle-treated and Scn1a^+/− CBD-treated group were compared using a Mantel-Cox test. The percentage of animals from the Scn1a^+/− vehicle-treated and Scn1a^+/− CBD-treated groups that survived until the end of the study (P52) were compared by Fisher's exact test. Further, data obtained from the comorbidity assessment were checked for normality by D'Agostino & Pearson omnibus normality test. Data obtained from rotarod, gait, social interaction (active interaction), EPM, sucrose preference, RAM (RME) tests were normally distributed and the differences between the three groups were analysed by one-way ANOVA. […] Parametric data are presented in scattered dot plot in the figures and are expressed as mean±SEM. Non-parametric data are presented in box plot in the figures and are expressed as median, min to max, and interquartile range (IQR). […]

Scn1a^+/− mice [2] = experiment: Survival / premature mortality in Scn1a^+/− mice, Study II (chronic model of Dravet syndrome)
Experimental: The animals were group housed throughout Study II except for 3 days during sucrose preference test when each animal was individually housed. This experiment was conducted in dark cycle (dim red light, 8:00-20:00 h). Male 129S-Scn1^atm1Kea/Mmjax heterozygote mice (Jackson Laboratory, USA) were bred with female wild type C57BL/6 mice (Charles River, UK) to obtain Scn1a^+/− and wild type (WT) littermate mice used in this study. At the end of the study, animals were humanely killed by cervical dislocation. […]
As seizure-related deaths in this model were unpredictable, animals were video monitored continuously (24 h×7 days) throughout the study and any mortality observed was cross checked with the available video footage to confirm the reason of death.
In Study II, the data were analysed in GraphPad Prism 6 software. […] Data obtained from rotarod, gait, social interaction (active interaction), EPM, sucrose preference, RAM (RME) tests were normally distributed and the differences between the three groups were analysed by one-way ANOVA. […] Parametric data are presented in scattered dot plot in the figures and are expressed as mean±SEM. Non-parametric data are presented in box plot in the figures and are expressed as median, min to max, and interquartile range (IQR). […]

wild type (WT) mice = experiment: Neonatal welfare scoring (TNW) in wild type mice, Study I
Experimental: 129S-Scn1a^tm1Keammjax heterozygote mice (Jackson Laboratory, USA) were maintained in and bred together to obtain Scn1a^−/− and wild type (WT) animals used for this Study (n=10 per group).
Following genotyping, animals were randomly divided into four groups WT vehicle-treated, WT CBD-treated, Scn1a^−/− vehicle-treated and Scn1a^−/− CBD-treated (n=10/group). They were injected subcutaneously twice daily with either CBD (100 mg/kg) or its vehicle (ethanol:Kolliphor®:0.9% saline=2:1:17) from P8 until P25 or death (whichever was earlier).
A twice daily welfare check was conducted throughout the entire duration of the study. Drug administration was conducted at 0800 h and followed by welfare checks. Conversely, afternoon welfare checks were conducted from 1600 h and followed by drug administration in order to provide the maximum possible time between doses. […]
The parameters used for the welfare assessment were: weight, natural activity (NA; 0-3), reflex/response to touch (RT; 0-3), orbital tightening (OT; 0-2), and body condition score (BC; 1-3). A total neonatal welfare score (TNW; range 0-8) was calculated by adding together scores from NA, RT, and […].
In Study I, the welfare parameters were analysed using SPSS 24 (IBM SPSS Statistics®, UK), whilst survival data were analysed using GraphPad Prism 6 software (GraphPad Software, Inc., USA). […] All the data are expressed as mean±SEM. […]

C=C(C)[C@@H]1CCC(C)=C[C@H]1c1c(O)cc(CCCCC)cc1O [CBD, cannabidiol]
stride width between the three groups (Scn1a^+/− mice [1]; p=0.17, FIG. 3E): no significant change | left stride length between the three groups (Scn1a^+/− mice [1]; p=0.44, FIG. 3C): no significant change | right stride length between the three groups (Scn1a^+/− mice [1]; p=0.44, FIG. 3D): no significant change | survival curve, Scn1a^+/− vehicle-treated versus CBD-treated (Scn1a^+/− mice [2]; CBD 100 mg/kg s.c. twice daily from P8 until P52 or death, n=12 CBD, n=29 vehicle, Mantel-Cox p=0.04, FIG. 2A): Survival was significantly less in Scn1a^+/− vehicle-treated group | animals that died before the completion of the study (P52) (Scn1a^+/− mice [2]; Scn1a^+/− CBD-treated, 2 of 12, CBD 100 mg/kg s.c. twice daily from P8, vehicle approximately 66% (19 of 29), p<0.0001, FIG. 2B): 17% | TNW score versus WT vehicle-treated animals (post hoc) (wild type (WT) mice; P8-P8.5, first day of treatment, CBD 100 mg/kg s.c. twice daily, p<0.05, FIG. 1A): improved TNW score | mean total neonatal welfare (TNW) score (wild type (WT) mice; WT CBD-treated group, CBD 100 mg/kg s.c. twice daily from P8 until P25, n=10, mean±SEM, score range 0-8, vehicle group 0.39±0.04): 0.24±0.04
